From patent US9018395B2, “Pyrazolopyridine and pyrazolopyrimidine derivatives as melanocortin-4 receptor modulators” (Université de Montréal, priority 2011, dated 2015)

Target: T1, wild-type human melanocortin 4 receptor (WT-hMC4R) (Homo sapiens, UniProt P32245)
T1 construct: expressed in transfected cells; cDNA from UMR cDNA resource center
Assay: Cyclic AMP assay (HTRF), antagonist competition against NDP-α-MSH
Assay type: cell-based
Conditions: HEK293T cells expressing double-tagged WT-hMC4R; cAMP accumulation; 1 hour compound then 4 nM NDP-α-MSH 30 min
Procedure: Intracellular cyclic 3′-5′ adenosine monophosphate (cAMP) accumulation was measured using a competitive immunoassay based on HTRF (Homogeneous Time-Resolved Fluorescence) technology (cAMP dynamic-2, Cis-Bio).
HEK293T stable cell line expressing double-tagged WT-hMC4R construct were collected and washed in cAMP buffer (1XD-PBS pH 7.4, 0.1% glucose). 40,000 cells/well were then dispensed in 96-well plates in cAMP buffer [1XD-PBS, 1% BSA, 0.1% Glucose, 0.75 mM 3-isobutyl-1methyl-xanthine (IBMX, Sigma)] and incubated either for antagonist competition assay: 1 hour at 37° C. with various concentrations of compound [0.01 nM-10 μM] followed by 30 min incubation at 37° C. with 4 nM of NDP-α-MSH (Sigma) or for agonist assay: 1 hour at 37° C. with various concentrations of compound [0.01 nM-10 μM]. 10,000 cells were transferred in 384-well plates, lysed and incubated with cAMP labeled with the dye d2 and anti-cAMP M-Antibody labeled with Cryptate following the manufacturer's protocol.
Reading of HTRF signal was performed on Artemis TR-FRET plate reader (Cosmo Bio).
All curve fitting was conducted using non-linear regression analyses from PRISM (version 4.0c, GraphPad Inc.) and the determination of Rmax and EC50 or IC50 parameters were obtained from sigmoidal dose-response phase (variable slope) equation.
A cDNA encoding a wild-type human MC4R with a 3 tandem copies of Hemaglutinine (HA) epitote sequence from UMR cDNA resource center was modified using known techniques in the art (e.g., PCR, cloning) to fused in frame at the C-terminal a venus-Yellow Fluorescent Protein (YFP) cDNA.
The resultant cDNA was then subcloned in eukaryotic expression vector, e.g. pcDNA 3.1(+) (Invitrogen).
The double tagged WT-hMC4R was transfected in HEK293T cells with lipofectamine (Invitrogen) following the manufacturer's instructions and permanently transfected clonal cell lines were selected by resistance to the neomycin analog G418.
HEK293T stable cell line expressing wild-type human melanocortin 4 receptor (WT-hMC4R) containing an N-terminal 3xHA epitope tag and an intracellular C-terminal venus-yellow fluorescent protein (v-YFP) were maintained at 37° C. in humidified air containing 5% CO2 in Dulbecoo's modified Eagle's medium (DMEM) supplemented with 10% fetal bovine serum (FBS), 100 U/ml penicillin/streptomycin (DMEM complete/10% FBS). Cells were generally at 70%-80% confluence on the day of assay.

T1 sequence (P32245 whole entry): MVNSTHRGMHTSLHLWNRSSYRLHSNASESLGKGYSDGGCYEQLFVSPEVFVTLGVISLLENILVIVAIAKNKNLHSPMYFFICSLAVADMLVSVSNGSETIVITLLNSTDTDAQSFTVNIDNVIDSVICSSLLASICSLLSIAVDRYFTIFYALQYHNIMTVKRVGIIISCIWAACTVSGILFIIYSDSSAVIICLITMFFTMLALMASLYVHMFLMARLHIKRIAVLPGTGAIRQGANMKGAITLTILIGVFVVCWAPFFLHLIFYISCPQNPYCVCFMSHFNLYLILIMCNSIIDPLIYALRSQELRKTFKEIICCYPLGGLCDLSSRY

Compound | IC50 [nM]
CCCCN(CCCC)C(=O)c1ccn2nc(-c3ccc(OC)cc3)c(CCCN3CCCCC3)c2c1 [Example 1, N,N-Dibutyl-2-(4-methoxyphenyl)-3-(3-(piperidin-1-yl)propyl)pyrazolo[1,5-a]pyridine-5-carboxamide] | 1000 to 5000
COc1ccc(-c2nn3ccc(C(=O)N(CCC(C)C)CCC(C)C)cc3c2CCCN2CCCCC2)cc1 [Example 2] | 1000 to 5000
CC(C)CCN(CCC(C)C)C(=O)c1ccn2nc(-c3ccc(C(C)(C)C)cc3)c(CCCN3CCCCC3)c2c1 [Example 4] | 1000 to 5000
CCCCN(CCCC)C(=O)c1ccn2nc(-c3ccc(C(C)(C)C)cc3)c(/C=C/CN3CCCCC3)c2c1 [Example 7] | 5000 to 15000
CC(C)CCN(CCC(C)C)C(=O)c1ccn2nc(-c3ccc(C(C)(C)C)cc3)c(CCCN3CCCC3)c2c1 [Example 8] | 1000 to 5000
CCCCN(CCCC)C(=O)c1ccn2nc(-c3ccc(C(C)(C)C)cc3)c(CCCN3CCCC3)c2c1 [Example 9] | 5000 to 15000
CC(C)CCN(CCC(C)C)C(=O)c1ccn2nc(-c3ccc(Cl)cc3)c(CCCN3CCCCC3)c2c1 [Example 11, 2-(4-Chlorophenyl)-N,N-diisopentyl-3-(3-(piperidin-1-yl)propyl)pyrazolo[1,5-a]pyridine-5-carboxamide] | 1000 to 5000
CCCCN(CCCC)C(=O)c1ccn2nc(-c3ccc(OC)cc3)c(/C=C/CN3CCCCC3)c2c1 [Example 12, (E)-N,N-Dibutyl-2-(4-methoxyphenyl)-3-(3-(piperidin-1-yl)prop-1-enyl)pyrazolo[1,5-a]pyridine-5-carboxamide] | 1000 to 5000
COc1cccc(-c2nn3ccc(C(=O)N(CCC(C)C)CCC(C)C)cc3c2CCCN2CCCCC2)c1 [Example 15] | < 500
COc1ccc(-c2nn3ccc(C(=O)N(CCC(C)C)CCC(C)C)cc3c2CCCN2CCCCC2)cc1OC [Example 16] | < 500
COc1ccc(-c2nn3ccc(C(=O)N(CCC(C)C)CCC(C)C)cc3c2/C=C/CN(C)C)cc1 [Example 17] | 5000 to 15000
COc1ccc(-c2nn3ccc(C(=O)N(CCC(C)C)CCC(C)C)cc3c2CCCN(C)C)cc1 [Example 18] | 5000 to 15000
CCCCCN(CCCCC)C(=O)c1ccn2nc(-c3ccc(OC)cc3)c(/C=C/CN3CCCCC3)c2c1 [Example 19] | 1000 to 5000
CCCCCN(CCCCC)C(=O)c1ccn2nc(-c3ccc(OC)cc3)c(CCCN3CCCCC3)c2c1 [Example 21] | 1000 to 5000
CCOc1ccc(-c2nn3ccc(C(=O)N(CCC(C)C)CCC(C)C)cc3c2CCCN2CCCCC2)cc1 [Example 22] | 500 to 1000
CCCCN(CCC)C(=O)c1ccn2nc(-c3ccc(OC)cc3)c(/C=C/CN3CCCCC3)c2c1 [Example 25] | 1000 to 5000
CCCN(CC1CC1)C(=O)c1ccn2nc(-c3ccc(OC)cc3)c(/C=C/CN3CCCCC3)c2c1 [Example 26] | 5000 to 15000
CCCN(CC1CC1)C(=O)c1ccn2nc(-c3ccc(OC)cc3)c(CCCN3CCCCC3)c2c1 [Example 27] | 5000 to 15000
COC(=O)c1ccc(-c2nn3ccc(C(=O)N(CCC(C)C)CCC(C)C)cc3c2CCCN2CCCCC2)cc1 [Example 44] | 500 to 1000
CC(C)CCN(CCC(C)C)C(=O)c1ccn2nc(-c3ccc(Br)cc3)c(CCCN3CCCCC3)c2c1 [Example 45] | < 500
CC(C)CCN(CCC(C)C)C(=O)c1ccn2nc(-c3ccc(C(C)O)cc3)c(CCCN3CCCCC3)c2c1 (centres unmarked) [Example 46, 2-(4-(1-Hydroxyethyl)phenyl)-N,N-diisopentyl-3-(3-(piperidin-1-yl)propyl)pyrazolo[1,5-a]pyridine-5-carboxamide] | < 500
CCCCN(CCCC)C(=O)c1ccn2nc(-c3ccc(F)cc3)c(CCCN3CCCCC3)c2c1 [Example 48] | 500 to 1000
CC(C)CCN(CCC(C)C)C(=O)c1ccn2nc(-c3ccc(F)cc3)c(CCCN3CCCCC3)c2c1 [Example 49] | < 500
CCCCCN(CCCCC)C(=O)c1ccn2nc(-c3ccc(F)cc3)c(CCCN3CCCCC3)c2c1 [Example 50] | 1000 to 5000

Now from value to compound:

IC50 [nM] | Compound
500 to 1000 | COc1ccc(-c2nn3ccc(C(=O)N(CCC(C)C)CCC(C)C)cc3c2/C=C/CN2CCCCC2)cc1 [Example 3]
1000 to 5000 | CC(C)CCN(CCC(C)C)C(=O)c1ccn2nc(-c3ccc(C(C)(C)C)cc3)c(/C=C/CN3CCCCC3)c2c1 [Example 5]
1000 to 5000 | CC(C)CCN(CCC(C)C)C(=O)c1ccn2nc(-c3ccc(C(C)(C)C)cc3)c(/C=C/CN3CCCC3)c2c1 [Example 6]
500 to 1000 | CC(C)CCN(CCC(C)C)C(=O)c1ccn2nc(-c3ccc(Cl)cc3)c(/C=C/CN3CCCCC3)c2c1 [Example 10, (E)-2-(4-chlorophenyl)-N,N-diisopentyl-3-(3-(piperidin-1-yl)prop-1-en-1-yl)pyrazolo[1,5-a]pyridine-5-carboxamide]
500 to 1000 | COc1cccc(-c2nn3ccc(C(=O)N(CCC(C)C)CCC(C)C)cc3c2/C=C/CN2CCCCC2)c1 [Example 13]
< 500 | COc1ccc(-c2nn3ccc(C(=O)N(CCC(C)C)CCC(C)C)cc3c2/C=C/CN2CCCCC2)cc1OC [Example 14]
1000 to 5000 | CCOc1ccc(-c2nn3ccc(C(=O)N(CCC(C)C)CCC(C)C)cc3c2/C=C/CN2CCCCC2)cc1 [Example 20]
1000 to 5000 | COc1ccc(-c2nn3ccc(C(=O)N(CCC(C)C)CCC(C)C)cc3c2/C=C/CN2CCCC2)cc1 [Example 23]
1000 to 5000 | CC(C)CCN(CCC(C)C)C(=O)c1ccn2nc(-c3ccc(C(=O)O)cc3)c(/C=C/CN3CCCCC3)c2c1 [Example 24]
1000 to 5000 | CC(C)CCN(CCC(C)C)C(=O)c1ccn2nc(-c3cccc(Br)c3)c(/C=C/CN3CCCCC3)c2c1 [Example 28]
500 to 1000 | CC(=O)c1cccc(-c2nn3ccc(C(=O)N(CCC(C)C)CCC(C)C)cc3c2/C=C/CN2CCCCC2)c1 [Example 29]
< 500 | COC(=O)c1cccc(-c2nn3ccc(C(=O)N(CCC(C)C)CCC(C)C)cc3c2/C=C/CN2CCCCC2)c1 [Example 30]
< 500 | COC(=O)c1cccc(-c2nn3ccc(C(=O)N(CCC(C)C)CCC(C)C)cc3c2CCCN2CCCCC2)c1 [Example 31]
500 to 1000 | CC(C)CCN(CCC(C)C)C(=O)c1ccn2nc(-c3cccc(C(C)O)c3)c(CCCN3CCCCC3)c2c1 (centres unmarked) [Example 32]
< 500 | CC(=O)c1cccc(-c2nn3ccc(C(=O)N(CCC(C)C)CCC(C)C)cc3c2CCCN2CCCCC2)c1 [Example 33]
1000 to 5000 | CC(C)CCN(CCC(C)C)C(=O)c1ccn2nc(-c3ccccc3Br)c(/C=C/CN3CCCCC3)c2c1 [Example 34]
1000 to 5000 | CC(=O)c1ccccc1-c1nn2ccc(C(=O)N(CCC(C)C)CCC(C)C)cc2c1/C=C/CN1CCCCC1 [Example 35]
1000 to 5000 | COC(=O)c1ccccc1-c1nn2ccc(C(=O)N(CCC(C)C)CCC(C)C)cc2c1/C=C/CN1CCCCC1 [Example 36]
< 500 | CC(C)CCN(CCC(C)C)C(=O)c1ccn2nc(-c3cccc(Br)c3)c(CCCN3CCCCC3)c2c1 [Example 37]
1000 to 5000 | CC(C)CCN(CCC(C)C)C(=O)c1ccn2nc(-c3ccccc3Br)c(CCCN3CCCCC3)c2c1 [Example 38]
1000 to 5000 | COC(=O)c1ccccc1-c1nn2ccc(C(=O)N(CCC(C)C)CCC(C)C)cc2c1CCCN1CCCCC1 [Example 39]
1000 to 5000 | CC(=O)c1ccccc1-c1nn2ccc(C(=O)N(CCC(C)C)CCC(C)C)cc2c1CCCN1CCCCC1 [Example 40]
1000 to 5000 | CC(C)CCN(CCC(C)C)C(=O)c1ccn2nc(-c3ccc(Br)cc3)c(/C=C/CN3CCCCC3)c2c1 [Example 41, (E)-2-(4-Bromophenyl)-N,N-diisopentyl-3-(3-(piperidin-1-yl)prop-1-en-1-yl)pyrazolo[1,5-a]pyridine-5-carboxamide]
500 to 1000 | CC(=O)c1ccc(-c2nn3ccc(C(=O)N(CCC(C)C)CCC(C)C)cc3c2/C=C/CN2CCCCC2)cc1 [Example 42, (E)-2-(4-Acetylphenyl)-N,N-diisopentyl-3-(3-(piperidin-1-yl)prop-1-en-1-yl)pyrazolo[1,5-a]pyridine-5-carboxamide]
500 to 1000 | COC(=O)c1ccc(-c2nn3ccc(C(=O)N(CCC(C)C)CCC(C)C)cc3c2/C=C/CN2CCCCC2)cc1 [Example 43, (E)-Methyl 4-(5-(diisopentylcarbamoyl)-3-(3-(piperidin-1-yl)prop-1-en-1-yl)pyrazolo[1,5-a]pyridin-2-yl)benzoate]
500 to 1000 | CC(=O)c1ccc(-c2nn3ccc(C(=O)N(CCC(C)C)CCC(C)C)cc3c2CCCN2CCCCC2)cc1 [Example 47, 2-(4-Acetylphenyl)-N,N-diisopentyl-3-(3-(piperidin-1-yl)propyl)pyrazolo[1,5-a]pyridine-5-carboxamide]
